Measured values: paper PMC9852063 (Molecular carcinogenesis, 2022)

Molecular target: T1, Doublecortin like kinase 1 (DCLK1) (Homo sapiens, UniProt O15075)
T1 sequence (O15075 1-740): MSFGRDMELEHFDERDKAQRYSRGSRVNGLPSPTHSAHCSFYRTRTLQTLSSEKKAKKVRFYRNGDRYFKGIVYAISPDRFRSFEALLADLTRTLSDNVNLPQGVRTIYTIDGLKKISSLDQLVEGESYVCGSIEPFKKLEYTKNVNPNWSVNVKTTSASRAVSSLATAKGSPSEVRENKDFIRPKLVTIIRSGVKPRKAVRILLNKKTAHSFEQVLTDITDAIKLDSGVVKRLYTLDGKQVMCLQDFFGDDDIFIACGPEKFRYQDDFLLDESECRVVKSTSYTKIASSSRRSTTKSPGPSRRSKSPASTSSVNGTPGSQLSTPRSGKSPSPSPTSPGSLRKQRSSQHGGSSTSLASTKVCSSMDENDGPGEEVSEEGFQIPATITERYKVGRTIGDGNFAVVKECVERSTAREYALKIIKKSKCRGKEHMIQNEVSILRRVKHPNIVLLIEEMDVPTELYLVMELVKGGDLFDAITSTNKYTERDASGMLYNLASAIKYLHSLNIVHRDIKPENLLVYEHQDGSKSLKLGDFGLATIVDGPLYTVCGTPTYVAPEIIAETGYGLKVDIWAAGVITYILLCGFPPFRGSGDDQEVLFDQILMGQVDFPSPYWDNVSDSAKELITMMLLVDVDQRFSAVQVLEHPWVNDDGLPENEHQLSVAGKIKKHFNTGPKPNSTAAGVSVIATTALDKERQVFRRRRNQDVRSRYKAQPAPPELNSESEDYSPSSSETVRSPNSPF
Assay: SPR with immobilized recombinant DCLK1
Assay type: binding

O=C1C(=Cc2ccc(F)cc2F)CNCC1=Cc1ccc(F)cc1F [DiFiD, 3,5-bis (2,4-difluorobenzylidene)-4-piperidone]
Kd: 71 nM
